{"source": "patent US9198416B2", "about": "“Method for enhancing drought tolerance in plants” (Plant Response Biotech S.L., priority 2013, dated 2015)", "format_in_all_cases": "in vivo", "key": {"[1]": {"system": "tomato 'Moneymaker' seeds", "experiment": "Tomato seed germination under PEG-6000 simulated drought", "conditions": "10 days", "description": "In order to determine the drought or water stress tolerance after seed treatments with TMAO di-hydrate and germination in the presence of TMAO di-hydrate, tomato ‘Moneymaker’ seeds were surface sterilized for 3 minutes in ethanol 70%, then rinsed twice and finally included in a pre-treatment solution of 0.1 g/L TMAO di-hydrate solution (or just water) under shaking for 3 hours. Then, they were rinsed and included in the germination plates under sterile conditions. Polyethylene glycol (PEG-6000) was added to the germination medium (Murashige and Skoog salts medium) at 152 and 182 g/L. The increasing amount of PEG reduces ψ (hydric potential) values, simulating drought conditions for germination. Each germination plate had at least 30 seeds, and each treatment/pretreatment plate was replicated five times (150 seeds per treatment/pretreatment). Seeds were left to germinate for 10 days under dark conditions in a culture chamber (21° C. light and 20° C. night, 65% humidity). Then, germinated seeds were recorded by visual inspection and data analysis was performed using Statgraphics software.\nTMAO di-hydrate applied exogenously increases germination both in pre-treatment of the seeds and as an additive to the medium. Tomato ‘Moneymaker’ seeds were sown, grown and treated as described above."}, "'FAO700' corn": {"system": "'FAO700' corn", "experiment": "Corn number of green leaves under limited water irrigation", "conditions": "30% water, 1 g/L (Table 11 rows 3 and 4)", "description": "(§1) For each wilting or limited water experiment 480 seeds (of either pepper, barley, tomato, cucumber or corn) were sown, producing 384 plants in 512 cm^3 pots (4 plants per pot). Plants were grown under chamber conditions at 21° C. for 3 weeks. Then, the plants were moved to a greenhouse, where average temperature was 25° C. to 28° C. Treatments as described herein were done when the plants had two extended leaves and the next pair of leaves were coming up.\n(§2) After the treatments described above, the plants were not watered until the pots completely lost their moisture, taking about 4 to 8 days depending on the season, at which point the plants were extremely wilted for the extreme drought experiments. The plants were then watered once with solutions containing the different amounts of TMAO di-hydrate described above (0.1 g/L, 1.0 g/L or 5.5 g/L) or just water, after which the plants were left to lose their moisture completely again for three consecutive cycles of watering after wilting. […] The plant survival rate was recorded and analyzed for the “extreme drought” experiments in which plants were allowed to wilt severely before watering, while the stem length was recorded as analyzed for the limited water experiments in which the plants are watered with 30% of the water that the plant requires. […]"}, "[2]": {"experiment": "TMAO content in pepper leaves by NMR after TMAO spray", "conditions": "1 g/l spray", "description": "as §1\n(§3) TMAO content in plants was determined by harvesting three leaves per treatment and freezing them in liquid nitrogen before the NMR determination. At least three independent plants were treated per experiment.\n(§4) TMAO accumulates in pepper and barley when applied exogenously. ‘Murano’ pepper seeds and ‘Bomi’ barley seeds were sown and grown as described above. Control plants (six weeks old) were sprayed with water and pepper treated plants were sprayed with 1 g/l of TMAO while barley plants were sprayed with 1 g/l of TMAO formulated with 0.1% of C8-C10 Alkylpolysaccharide. Leaves were harvested and TMAO was determined by NMR. The percentage of TMAO increase compared to untreated controls was determined for each time point. TMAO levels increase in pepper and barley with exogenous treatment of TMAO at 1 g/l to higher levels than drought treatment and furthermore, the TMAO levels are high up to 40 days post spray in pepper."}, "'TAO700' corn [3]": {"system": "'TAO700' corn", "experiment": "Corn number of grains per cob under limited water irrigation", "conditions": "30% water, 1 g/L (Table 13 row 4)", "description": "as §1, §2"}, "'Rio Grande' tomato": {"system": "'Rio Grande' tomato", "experiment": "Tomato fruit production under limited water irrigation", "conditions": "30% water irrigation, 1 g/L TMAO spray every 4 weeks", "description": "as §1, §2"}, "Moneymaker tomato": {"system": "Moneymaker tomato", "experiment": "Tomato plant survival under extreme drought", "conditions": "higher test rates, both treatments (sprayed or watered)", "description": "as §1\nTwelve (12) pots (containing 48 plants) were irrigated with 40 ml of either: water, 0.1 g/L TMAO di-hydrate solution, 1.0 g/L TMAO di-hydrate solution, or 5.5 g/L TMAO di-hydrate solution. […]\n(§5) After the treatments described above, the plants were not watered until the pots completely lost their moisture, taking about 4 to 8 days depending on the season, at which point the plants were extremely wilted for the extreme drought experiments. […] The plant survival rate was recorded and analyzed for the “extreme drought” experiments in which plants were allowed to wilt severely before watering, while the stem length was recorded as analyzed for the limited water experiments in which the plants are watered with 30% of the water that the plant requires. […]"}, "'TAO700' corn [4]": {"system": "'TAO700' corn", "experiment": "Corn total chlorophyll content under limited water irrigation", "conditions": "30% water", "description": "as §1, §2"}, "'Bomi' barley": {"system": "'Bomi' barley", "experiment": "Barley dry weight under drought / limited water irrigation", "conditions": "drought growing conditions", "description": "as §1\nTwelve (12) pots (containing 48 plants) were irrigated with 40 ml of either: water, 0.1 g/L TMAO di-hydrate solution, 1.0 g/L TMAO di-hydrate solution, or 5.5 g/L TMAO di-hydrate solution. Another set of 12 pots containing 48 plants were sprayed with 40 ml of either water (3.3 ml in average per pot), a solution containing 0.1 g/L TMAO di-hydrate solution, 1.0 g/L TMAO di-hydrate, or 5.5 g/L TMAO di-hydrate. All pots were also watered with 40 ml of water. The sprayed plants were watered with the same volume of water as the “irrigated plants) The pots were located on plastic glass to maintain constant moisture and to avoid liquid spillage during watering. Trays containing the pots were located on greenhouse tables. The distribution of the trays on the table and the position on the pots in the tray was changed every week to avoid position effects.\nas §5"}, "[5]": {"experiment": "TMAO content in barley leaves by NMR after TMAO spray", "conditions": "1 g/l spray formulated with 0.1% C8-C10 Alkylpolysaccharide, 1 day post spray", "description": "as §1, §3, §4"}, "[6]": {"system": "'Sabrina', 'Candonga' and 'Fortuna' variety strawberry plants", "experiment": "Strawberry fruit production under normal conditions (trade-off test)", "conditions": "no water stress; for Strawberry fruit production % Control: 1 g/L spray every 4 weeks for 3 months", "description": "In order to determine the plant fruit productivity under normal conditions, ‘Sabrina’, ‘Candonga’ and ‘Fortuna’ variety strawberry plants were grown under standard strawberry production conditions and 120 plants of each variety per treatment (where the treatment was a Control comprising standard watering or 1 g/L of TMAO spray every four weeks) were analyzed. Plants were located in four (4) different positions for each group of 30 plants from the same treatment. Fruits were harvested from individual plants and total weight was determined for each plant.\nFruit yield was determined in ‘Sabrina’, ‘Candonga’ and ‘Fortuna’ strawberry plants treated with 1 g/l of TMAO di-hydrate or water as described above in order to evaluate the trade-off costs of the treatment with no water stress."}, "'Murano' pepper": {"system": "'Murano' pepper", "experiment": "Pepper plant survival under extreme drought", "conditions": "10 g/L and 1 g/L sprayed, irrigation with water (as worded)", "description": "as §1\nTwelve (12) pots (containing 48 plants) were irrigated with 40 ml of either: water, 0.1 g/L TMAO di-hydrate solution, 1.0 g/L TMAO di-hydrate solution, or 5.5 g/L TMAO di-hydrate solution. […] All pots were also watered with 40 ml of water. […]\nas §5"}}}
{"smiles": "C[N+](C)(C)[O-]", "note": "[TMAO, Trimethylamine N-oxide]", "values": [{"measurement": "GERMINATION RATE", "setting": "[1]; PEG 152 g/L (ψ −0.2564), 0.1 g/L in the germination medium", "value": "71.09 ± 4.26", "unit": "%"}, {"measurement": "GERMINATION RATE", "setting": "[1]; PEG 152 g/L (ψ −0.2564), seed pre-treatment 0.1 g/L solution 3 hours", "value": "70.62 ± 4.62", "unit": "%"}, {"measurement": "GERMINATION RATE", "setting": "[1]; PEG 182 g/L (ψ −0.3676), 0.1 g/L in the germination medium", "value": "45.00 ± 3.20", "unit": "%"}, {"measurement": "GERMINATION RATE", "setting": "[1]; PEG 182 g/L (ψ −0.3676), seed pre-treatment 0.1 g/L solution 3 hours", "value": "18.53 ± 3.20", "unit": "%"}, {"measurement": "increase in green leaf production over untreated plants with 30% irrigation", "setting": "'FAO700' corn", "value": 47, "unit": "%"}, {"measurement": "TMAO accumulation % Control", "setting": "[2]; 1 day post spray, vs water-sprayed control", "value": 529, "unit": "% Control"}, {"measurement": "TMAO accumulation % Control", "setting": "[2]; 10 days post spray", "value": 373, "unit": "% Control"}, {"measurement": "TMAO accumulation % Control", "setting": "[2]; 20 days post spray", "value": 286, "unit": "% Control"}, {"measurement": "TMAO accumulation % Control", "setting": "[2]; 30 days post spray", "value": 135, "unit": "% Control"}, {"measurement": "TMAO accumulation % Control", "setting": "[2]; 40 days post spray", "value": 213, "unit": "% Control"}, {"measurement": "increase in total number of grains per corn cob compared to 100% irrigation", "setting": "'TAO700' corn [3]", "value": 2, "unit": "%"}, {"measurement": "AVERAGE WEIGTH (grams/fruit)", "setting": "'Rio Grande' tomato", "value": "76.73 ± 17.67", "unit": "grams/fruit"}, {"measurement": "shoot dry mass compared with untreated plants", "setting": "Moneymaker tomato", "value": "clear increase"}, {"measurement": "TOTAL CHLOROPHYL CONTENT", "setting": "'TAO700' corn [4]; 1 g/L TMAO seed treatment", "value": "0.8977 ± 0.195"}, {"measurement": "TOTAL CHLOROPHYL CONTENT", "setting": "'TAO700' corn [4]; 1 g/L TMAO spray", "value": "0.7278 ± 0.076"}, {"measurement": "AVERAGE DRY WEIGHT", "setting": "'Bomi' barley; initial treatment 1 g/L sprayed solution, irrigations water", "value": "1205.4 ± 60.37", "unit": "mg"}, {"measurement": "AVERAGE DRY WEIGHT", "setting": "'Bomi' barley; initial treatment 1 g/L watered solution, irrigations water", "value": "1371.4 ± 66.13", "unit": "mg"}, {"measurement": "AVERAGE DRY WEIGHT", "setting": "'Bomi' barley; irrigations 1 g/L solution, initial treatments pooled", "value": "1216.1 ± 33.44", "unit": "mg"}, {"measurement": "TMAO accumulation % Control", "setting": "[5]", "value": 822, "unit": "% Control"}, {"measurement": "difference in fruit production vs water", "setting": "[6]; 1 g/l, three strawberry varieties", "value": "no significant difference"}, {"measurement": "Strawberry fruit production % Control", "setting": "[6]; Candonga", "value": 102, "unit": "% Control"}, {"measurement": "Strawberry fruit production % Control", "setting": "[6]; Fortuna", "value": 101, "unit": "% Control"}, {"measurement": "Strawberry fruit production % Control", "setting": "[6]; Sabrina", "value": 106, "unit": "% Control"}, {"measurement": "Strawberry fruit production % Control", "setting": "[6]; Total of the three varieties", "value": 105, "unit": "% Control"}, {"measurement": "plant survival", "setting": "'Murano' pepper", "value": 83.3, "unit": "%"}]}
